Data from article PMC4522185 (ChemistryOpen, 2015).
In brackets after ≈: the same amount, converted by molar mass.

Columns and labels:
[1] = biological target: human 20S proteasome (chymotrypsin-like activity, with PA28 activator) (Homo sapiens, UniProt P28074); experiment: fluorogenic suc-LLVY-AMC cleavage; assay type: biochemical
[2] = biological target: Mtb 20S open-gate proteasome (Mycobacterium tuberculosis, UniProt P9WHT9); experiment: biochemical
physchem [3] = details: ch3cn+pbs (1+1), pH 7.4
physchem [4] = details: pbs, pH 7.4, aqueous buffer

Mtb 20S open-gate proteasome, sequence (P9WHT9 whole entry): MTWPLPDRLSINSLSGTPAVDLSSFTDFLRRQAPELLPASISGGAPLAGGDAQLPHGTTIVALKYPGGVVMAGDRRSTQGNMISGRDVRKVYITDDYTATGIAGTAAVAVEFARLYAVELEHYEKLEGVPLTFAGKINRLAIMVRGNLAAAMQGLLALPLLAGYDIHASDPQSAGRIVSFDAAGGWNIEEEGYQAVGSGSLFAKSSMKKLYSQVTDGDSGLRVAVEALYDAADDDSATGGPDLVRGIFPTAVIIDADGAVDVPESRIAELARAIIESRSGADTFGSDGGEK
Mtb 20S open-gate proteasome, sequence (P9WHU1 whole entry partner): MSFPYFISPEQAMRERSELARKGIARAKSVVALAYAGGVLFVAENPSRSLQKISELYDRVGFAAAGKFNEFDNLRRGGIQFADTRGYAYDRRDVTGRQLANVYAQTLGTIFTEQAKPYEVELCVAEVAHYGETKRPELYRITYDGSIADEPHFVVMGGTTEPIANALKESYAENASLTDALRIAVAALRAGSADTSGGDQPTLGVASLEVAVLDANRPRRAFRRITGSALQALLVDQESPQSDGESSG
human 20S proteasome (chymotrypsin-like activity, with PA28 activator), sequence (P28074 60-263): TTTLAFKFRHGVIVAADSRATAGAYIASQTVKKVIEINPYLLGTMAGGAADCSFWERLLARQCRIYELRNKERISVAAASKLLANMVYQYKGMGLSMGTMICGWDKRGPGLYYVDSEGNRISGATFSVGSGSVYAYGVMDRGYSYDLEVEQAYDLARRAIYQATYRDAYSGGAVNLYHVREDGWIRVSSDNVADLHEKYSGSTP
human 20S proteasome (chymotrypsin-like activity, with PA28 activator), sequence (P25786 whole entry partner): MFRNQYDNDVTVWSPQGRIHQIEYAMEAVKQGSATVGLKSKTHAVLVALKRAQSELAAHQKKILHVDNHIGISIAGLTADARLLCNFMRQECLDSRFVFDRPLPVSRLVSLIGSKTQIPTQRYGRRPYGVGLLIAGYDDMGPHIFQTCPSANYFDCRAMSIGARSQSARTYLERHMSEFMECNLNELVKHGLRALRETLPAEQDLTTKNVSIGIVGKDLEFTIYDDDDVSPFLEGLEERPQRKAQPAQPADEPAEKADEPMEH

Row | SMILES | IC50 [1] | IC50 [2] | remaining at 24 h, 50 µM (physchem [3]) | solubility at 18 h (physchem [4])
1 | O=c1oc(-c2ccccc2)ns1 [compound 1, 5-Phenyl-1,3,4-oxathiazol-2-one] | 6.2 µM |  |  | 
2 | O=c1oc(-c2cnccn2)ns1 [compound 2, 5-(Pyrazin-2-yl)-1,3,4-oxathiazol-2-one] | 4.5 µM |  |  | 
3 | COc1cccc(-c2nsc(=O)o2)c1 [compound 3, 5-(3-Methoxyphenyl)-1,3,4-oxathiazol-2-one] | 15 µM |  |  | 
4 | O=c1oc(-c2cccc(F)c2)ns1 [compound 4, 5-(3-Fluorophenyl)-1,3,4-oxathiazol-2-one] | 11 µM |  |  | 
5 | O=c1oc(CCCl)ns1 [compound 5, 5-(2-Chloroethyl)-1,3,4-oxathiazol-2-one] | > 100 µM |  |  | 
6 | O=c1oc(C2CC2)ns1 [compound 6, 5-Cyclopropyl-1,3,4-oxathiazol-2-one] | > 100 µM |  |  | 
7 | CCCCCc1nsc(=O)o1 [compound 7, 5-Pentyl-1,3,4-oxathiazol-2-one] | > 100 µM |  |  | 
8 | O=c1oc(CF)ns1 [compound 8, 5-(Fluoromethyl)-1,3,4-oxathiazol-2-one] | 1.4 µM |  |  | 
9 | O=c1oc(Cc2ccccc2)ns1 [compound 9, 5-Benzyl-1,3,4-oxathiazol-2-one] | 1.9 µM |  |  | 
10 | COc1cccc(Cc2nsc(=O)o2)c1 [compound 10, 5-(3-Methoxybenzyl)-1,3,4-oxathiazol-2-one] | > 100 µM |  |  | 
11 | O=Cc1ccc(OCc2nsc(=O)o2)cc1 [compound 11, 4-((2-Oxo-1,3,4-oxathiazol-5-yl)methoxy)benzaldehyde] | > 100 µM |  |  | 
12 | O=c1oc(Cc2cccc3ccccc23)ns1 [compound 12, 5-(Naphthalen-1-ylmethyl)-1,3,4-oxathiazol-2-one] | > 100 µM |  |  | 
13 | O=c1oc(Cc2ccccc2C(F)(F)F)ns1 [compound 13, 5-(2-(Trifluoromethyl)benzyl)-1,3,4-oxathiazol-2-one] | 8.7 µM |  |  | 
14 | O=c1oc(C(O)c2ccccc2)ns1 (stereo not shown) [compound 14, 5-(Hydroxy(phenyl)methyl)-1,3,4-oxathiazol-2-one] | 20 µM |  |  | 
15 | O=c1oc(CCc2ccccc2)ns1 [compound 15, 5-Phenethyl-1,3,4-oxathiazol-2-one] | 6.7 µM |  |  | 
16 | CO[C@H](c1ccccc1)c1nsc(=O)o1 [compound 16, (R)-5-(Methoxy(phenyl)methyl)-1,3,4-oxathiazol-2-one] | 5.8 µM |  |  | 
17 | C=Cc1nsc(=O)o1 [compound 21, 5-Vinyl-1,3,4-oxathiazol-2-one] | 9.1 µM |  |  | 
18 | O=c1oc(/C(=C/c2ccccc2)c2ccccc2)ns1 [compound 23, (E)-5-(1,2-Diphenylvinyl)-1,3,4-oxathiazol-2-one] | 14 µM |  |  | 
19 | CC(C)c1ccc(/C=C/c2nsc(=O)o2)cc1 [compound 29, (E)-5-(4-Isopropylstyryl)-1,3,4-oxathiazol-2-one] | 14.5 µM | 1700 nM | 99.8% | 
20 | Cc1ccc(/C=C/c2nsc(=O)o2)cc1 [compound 30, (E)-5-(4-Methylstyryl)-1,3,4-oxathiazol-2-one] | > 100 µM | 1000 nM | 96% | 

Row | SMILES | IC50 [1] | IC50 [2] | remaining at 24 h, 50 µM (physchem [3]) | solubility at 18 h (physchem [4])
21 | CCc1ccc(/C=C/c2nsc(=O)o2)cc1 [compound 31, (E)-5-(4-Ethylstyryl)-1,3,4-oxathiazol-2-one] | > 100 µM | 1080 nM | 98.2% | 
22 | O=c1oc(/C=C/c2ccc(OC(F)(F)F)cc2)ns1 [compound 32, (E)-5-(4-(Trifluoromethoxy)styryl)-1,3,4-oxathiazol-2-one] | > 100 µM | 780 nM | 94.8% | 
23 | CCOC(=O)c1ccc(/C=C/c2nsc(=O)o2)cc1 [compound 33, (E)-Ethyl 4-(2-(2-oxo-1,3,4-oxathiazol-5-yl)vinyl)benzoate] | > 100 µM | 475 nM | 91.1% | 
24 | O=C(c1ccccc1)c1ccc(/C=C/c2nsc(=O)o2)cc1 [compound 34, (E)-5-(4-Benzoylstyryl)-1,3,4-oxathiazol-2-one] | 87 µM | 1190 nM | 96.1% | 
25 | COC(=O)c1ccc(/C=C/c2nsc(=O)o2)cc1 [compound 35, (E)-Methyl 4-(2-(2-oxo-1,3,4-oxathiazol-5-yl)vinyl)benzoate] | 27.5 µM | 415 nM | 97.3% | 
26 | O=c1oc(/C=C/c2ccc([N+](=O)[O-])cc2)ns1 [compound 36, (E)-5-(4-Nitrostyryl)-1,3,4-oxathiazol-2-one] | 26 µM | 1400 nM | 96.9% | 
27 | N#Cc1ccc(/C=C/c2nsc(=O)o2)cc1 [compound 37, (E)-4-(2-(2-Oxo-1,3,4-oxathiazol-5-yl)vinyl)benzonitrile] | 41.5 µM | 495 nM | 95.4% | 
28 | O=Cc1ccc(/C=C/c2nsc(=O)o2)cc1 [compound 38, (E)-4-(2-(2-Oxo-1,3,4-oxathiazol-5-yl)vinyl)benzaldehyde] | 32.5 µM | 695 nM | 91.4% | 
29 | O=c1oc(/C=C/c2ccc(Cl)cc2)ns1 [compound 39, (E)-5-(4-Chlorostyryl)-1,3,4-oxathiazol-2-one] | > 100 µM | 565 nM | 98.2% | 
30 | O=c1oc(/C=C/c2cc(Cl)ccc2Cl)ns1 [compound 40, (E)-5-(2,5-Dichlorostyryl)-1,3,4-oxathiazol-2-one] | 50 µM | 785 nM | 98.5% | 
31 | Cc1cccc(/C=C/c2nsc(=O)o2)c1 [compound 41, (E)-5-(3-Methylstyryl)-1,3,4-oxathiazol-2-one] | 39 µM | 1600 nM | 98.1% | 
32 | CCc1cccc(/C=C/c2nsc(=O)o2)c1 [compound 42, (E)-5-(3-Ethylstyryl)-1,3,4-oxathiazol-2-one] | 32.5 µM | 1450 nM | 96.4% | 
33 | O=c1oc(/C=C/c2cccc(OC(F)(F)F)c2)ns1 [compound 43, (E)-5-(3-(Trifluoromethoxy)styryl)-1,3,4-oxathiazol-2-one] | 39.5 µM | 1800 nM | 96.2% | 
34 | CCOC(=O)c1cccc(/C=C/c2nsc(=O)o2)c1 [compound 44, (E)-Ethyl 3-(2-(2-Oxo-1,3,4-oxathiazol-5-yl)vinyl)benzoate] | > 100 µM | 9900 nM | 96% | 
35 | Cc1ccccc1/C=C/c1nsc(=O)o1 [compound 45, (E)-5-(2-Methylstyryl)-1,3,4-oxathiazol-2-one] | > 100 µM |  | 94% | 
36 | CCc1ccccc1/C=C/c1nsc(=O)o1 [compound 46, (E)-5-(2-Ethylstyryl)-1,3,4-oxathiazol-2-one] | > 100 µM |  | 98% | 
37 | O=c1oc(/C=C/c2ccccc2OC(F)(F)F)ns1 [compound 47, (E)-5-(2-(Trifluoromethoxy)styryl)-1,3,4-oxathiazol-2-one] | > 100 µM |  | 95.7% | 
38 | CCOC(=O)c1ccccc1/C=C/c1nsc(=O)o1 [compound 48, (E)-Ethyl 2-(2-(2-Oxo-1,3,4-oxathiazol-5-yl)vinyl)benzoate] | > 100 µM |  | 97.7% | 
39 | O=c1oc(/C=C/c2ccccn2)ns1 [compound 54, (E)-5-(2-(Pyridin-2-yl)vinyl)-1,3,4-oxathiazol-2-one] |  |  |  | 64.6 µM (≈ 13.3 µg/mL)
40 | O=c1oc(/C=C/c2cccnc2)ns1 [compound 55, (E)-5-(2-(Pyridin-3-yl)vinyl)-1,3,4-oxathiazol-2-one] |  |  |  | 70.6 µM (≈ 14.6 µg/mL)
